Paper PMC2745557 (FEBS letters, 2009)

Key:
Bombyx AKHR [1] = target: T1, Bombyx AKHR (Bombyx mori, UniProt Q8T6U9); type: cell-based
T1 sequence (Q8T6U9 1-405): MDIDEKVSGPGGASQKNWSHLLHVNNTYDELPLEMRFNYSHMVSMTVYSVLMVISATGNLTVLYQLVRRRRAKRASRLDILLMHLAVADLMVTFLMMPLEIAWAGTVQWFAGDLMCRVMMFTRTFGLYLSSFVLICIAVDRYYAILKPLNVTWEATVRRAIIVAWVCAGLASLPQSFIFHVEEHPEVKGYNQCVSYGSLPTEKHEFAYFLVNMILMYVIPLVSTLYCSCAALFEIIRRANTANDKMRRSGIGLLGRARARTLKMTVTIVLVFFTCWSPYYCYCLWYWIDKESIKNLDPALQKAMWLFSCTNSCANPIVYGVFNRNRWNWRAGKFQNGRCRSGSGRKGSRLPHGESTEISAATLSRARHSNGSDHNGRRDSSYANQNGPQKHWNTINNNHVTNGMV

Bombyx AKHR [2] = target: T1, Bombyx AKHR; conditions: compared with AKH1; ref [12]; cited from earlier work

Substance | effect of toxin pre-treatment on cAMP generation (Bombyx AKHR [1]) | affinity of activation of Bombyx AKHR (Bombyx AKHR [2])
Pertussis toxin [PTX] | no effect on cAMP generation | 
Heliothis zea hypertrehalosaemic hormone [Hez-HrTH] |  | higher affinity than that of AKH1
cholera toxin [CTX] | remarkable increase in the cellular levels of cAMP | 
